# Reference: patent publication US8636983B2, “Aminoglycoside and fosfomycin combination for treatment of ventilator associated pneumonia (VAP) and ventilator associated tracheal (VAT) bronchitis” (priority 2011, dated 2014)
# Structures can show the parent of a compound that is named as a salt. Where two headings read alike, the source gives them in different places.
# Tests used:
# Acinetobacter baumannii = test: MIC by CLSI agar dilution, amikacin-resistant A. baumannii strains (SENTRY); assay type: cell-based; details: for MIC50: 21 A. baumannii isolates
# Text: (§1) Sixty-two amikacin-resistant strains were selected from a worldwide antimicrobial surveillance collection (SENTRY), which contains 35,000 organisms from six continents (56/62 organisms collected in 2011).
# Pseudomonas aeruginosa [1] = test: MIC by CLSI agar dilution, amikacin-resistant P. aeruginosa strains (SENTRY); assay type: cell-based; details: 21 P. aeruginosa isolates
# Text: as §1
# Klebsiella pneumoniae = test: MIC by CLSI agar dilution, amikacin-resistant K. pneumoniae strains (SENTRY); assay type: cell-based; details: 20 K. pneumoniae isolates
# Text: as §1
# [2] = test system: 62 Gram-negative, amikacin-resistant pathogens; test: MIC by CLSI agar dilution, all 62 amikacin-resistant isolates; assay type: cell-based; details: for MIC50: All 62 isolates
# Text: as §1
# clinical = details: both, human, in vivo
# Method: Adult patients having a clinical diagnosis of VAP, with a Gram-positive or Gram-negative organism in a tracheal aspirate sample were expected to be on mechanical ventilation for ≧3 days.
# Each adult patient received 3 escalating doses of a mixture of 50 mg/mL amikacin and 20 mg/mL fosfomycin, with doses separated by 24±2 hours (Table 1).
# All treatments were administered with a single patient, multi-treatment nebulizer (Investigational eFlow® Inline Nebulizer System; PARI Pharma GMBH, Starnberg, Germany), positioned in the inspiratory tubing between the ventilator and the patient. The nebulizer remained inline until all treatments were delivered.
# A placebo: 0.9% normal saline, having a volume matched to the antibiotic dosing schedule was delivered via the PARI Investigational eFlow® Inline Nebulizer System in mechanically ventilated patients.
# The eFlow® Inline Nebulizer System was positioned in the inspiratory tubing between the Puritan Bennett 840 Ventilator and the patient. Once in place, the nebulizer remained inline until all study-drug doses were delivered. Humidification continued during the nebulization of the formulation and the delivery of the entire dose.
# Patients are male or female between 18 years and 80 years of age with clinical diagnosis of VAP or VAT, a Gram-positive or Gram-negative bacteria on Gram stain of the tracheal aspirate and were expected to be on mechanical ventilation for at least three days.
# in vivo [3] = test: in vivo; design: species or system beagle dogs; details: both sexes, beagle, dog, delivered as combination antibiotic aerosol, 7-day treatment
# Method: Aerosol concentrations were determined on Days 1 and 7.
# in vivo [4] = details: dog; for Cmax: both, beagle
# Method: A GLP (Good Laboratory Practice) study was performed using 24 beagle dogs allocated to four dose groups (three males and three females per group) and exposed to aerosol generated with the PARI Investigational eFlow® Inline Nebulizer System using a closed-faced mask fitted with a mouth tube. The aerosols contained either control (water for injection) in Group 1 or a combined formulation containing 50 mg/mL amikacin and 20 mg/mL fosfomycin pH adjusted with HCl for Groups 2 to 4. Aerosol concentrations were determined on Days 1 and 7. The treatment period was for seven days with termination of the dogs on Day 8.
# Toxicokinetic parameters were estimated using WinNonlin pharmacokinetic software version 5.2.1 (Pharsight Corp.). A non-compartmental approach consistent with the extravascular route of administration was used for parameter estimation. All parameters were generated from individual amikacin and fosfomycin concentrations in plasma from Days 1 and 7.
# [5] = Aerosol particle size distribution (MMAD) in dog study; assay type: physicochemical; details: analytical methods, eFlow Inline Nebulizer aerosol
# Pseudomonas aeruginosa [6] = details: 1477 Pseudomonas aeruginosa isolates, Zhanel et al.; cited from earlier work
# [7] = test system: Stenotrophomonas maltophilia; details: Zhanel et al.; cited from earlier work
# [8] = pH and osmolality of amikacin starting material and solution; assay type: physicochemical; details: starting material
# Text: Amikacin Base, EP is compendial (Ph Eur) and is manufactured by ACS Dobfar S.p.a under DMF 13762. The API is manufactured in Bergamo, Italy. Fosfomycin Disodium is compendial (Ph Eur) and is manufactured by Ercros, S.A. under DMF 14341. The API is manufactured in Madrid, Spain. Rather than commercial amikacin sulfate, the amikacin base is the starting material. Amikacin base has a pH of approximately 11, and large amounts of HCl are required to neutralize the pH. In the two-part formulation (used to combine with equal volumes of 40 mg/mL fosfomycin to generate the final formulation of 50 mg/mL amikacin, 20 mg/mL fosfomycin), the amikacin 100 mg/mL solution has a final pH of 7.5-7.6 and has an osmolality of approximately 533 mOsmol/kg, of which only approximately 170 mOsmol/kg is due to the amikacin, the balance is from the chloride anion. This concentration of chloride anion provides the permeant anion that will prevent cough.
# In contrast, the starting pH of amikacin sulfate is 3.5-5.5 and little or no HCl is needed to neutralize the pH of the solution. Note that in the Neiderman paper (supra) amikacin sulfate was delivered as an aerosol to patients with VAP, and bronchospasm was reported in some patients. […] As described above, a final formulation has an amikacin concentration of 50 mg/ml and chloride anion concentration of approximately 265 meq/liter. […]
# [9] = test system: methicillin-resistant Staphylococcus aureus (MRSA); details: 148 MRSA isolates, data from the 1980s; cited from earlier work
# [10] = of water; cited from earlier work
# [11] = inhaled; cited from earlier work
# [12] = read-out: Median (MIC50) Amikacin MIC
# [13] = read-out: Median (MIC50) Fosfomycin MIC
structure (smiles),measurement,setting,value
"NCC[C@H](O)C(=O)N[C@@H]1C[C@H](N)[C@@H](O[C@H]2O[C@H](CN)[C@@H](O)[C@H](O)[C@H]2O)[C@H](O)[C@H]1O[C@H]1O[C@H](CO)[C@@H](O)[C@H](N)[C@H]1O [Amikacin, amikacin]",MIC,Acinetobacter baumannii; 5 A. baumannii isolates with high amikacin resistance,> 1020 µg/mL
same,MIC50,Acinetobacter baumannii; [12],8 µg/mL
same,MIC50,Pseudomonas aeruginosa [1]; [12],128 µg/mL
same,MIC50,Klebsiella pneumoniae; [12],256 µg/mL
same,MIC50,[2]; [12],128 µg/mL
same,amikacin concentration required to inhibit all 62 isolates,[2]; FIG. 4,> 1024 µg/mL
same,Kp,clinical,> 2000
same,"Mean amikacin Cmax in tracheal aspirate, fold higher than MIC 90 for P. aeruginosa",clinical,≥ 406 fold
same,"amikacin Cmax in tracheal aspirate, fold higher than MIC90 of P. aeruginosa",clinical,≥ 89 fold
same,NOAEL at 7 days,in vivo [3],117 mg/kg/day
same,Cmax,in vivo [4],13200 to 39300 ng/mL
same,accumulation following repeat dosing,in vivo [4],no clear indication of accumulation
same,particle size distribution (MMAD),[5],2.80 μm
same,MIC 90,Pseudomonas aeruginosa [6],32 µg/mL
same,MIC 90,[7],> 64 µg/mL
NCC[C@H](O)C(=O)N[C@@H]1C[C@H](N)[C@@H](O[C@H]2O[C@H](CN)[C@@H](O)[C@H](O)[C@H]2O)[C@H](O)[C@H]1O[C@H]1O[C@H](CO)[C@@H](O)[C@H](N)[C@H]1O [Amikacin base],pH,[8],approximately 11
"C[C@@H]1O[C@@H]1P(=O)(O)O [Fosfomycin, fosfomycin]",MIC50,Acinetobacter baumannii; [13],205 µg/mL
same,MIC50,Pseudomonas aeruginosa [1]; [13],51.2 µg/mL
same,MIC50,Klebsiella pneumoniae; [13],25.6 µg/mL
same,MIC50,[2]; [13],51.2 µg/mL
same,Kp,clinical,> 2000
same,"Mean fosfomycin Cmax in tracheal aspirate, fold higher than MIC 90 for MRSA",clinical,281 fold
same,"fosfomycin Cmax in tracheal aspirate, fold higher than MIC 90 of MRSA",clinical,≥ 54 fold
same,"fosfomycin tracheal aspirate concentrations, fold above the MIC 90 for MRSA",clinical; 6 h,≥ 2.2 fold
same,NOAEL at 7 days,in vivo [3],47.5 mg/kg/day
same,Cmax,in vivo [4],8700 to 28700 ng/mL
same,accumulation following repeat dosing,in vivo [4],no clear indication of accumulation
same,particle size distribution (MMAD),[5],2.75 μm
same,MIC 90,[9],32 µg/mL
"C[C@@H]1O[C@@H]1P(=O)(O)O [disodium salt of fosfomycin, Fosfomycin disodium]",solubility,[10],50 mg/mL
NC[C@H]1O[C@H](O[C@H]2[C@H](O)[C@@H](O[C@H]3O[C@H](CO)[C@@H](O)[C@H](N)[C@H]3O)[C@H](N)C[C@@H]2N)[C@H](N)C[C@@H]1O [tobramycin],airway half-life,[11],about 2 hours
